Results from article PMC10408569, “Recruitment of hexahydroquinoline as anticancer scaffold targeting inhibition of wild and mutants EGFR (EGFR^WT, EGFR^T790M, and EGFR^L858R)” (Journal of Enzyme Inhibition and Medicinal Chemistry, 2023).

Columns and labels:
HL-60(TB) = assay: NCI-60 anticancer screening (SRB); type: cell-based; conditions: Homo sapiens, leukemia, one dose 10 μM, read-out: Growth Inhibition Percentage (GI %)
RPMI-8226 = assay: NCI-60 anticancer screening (SRB); type: cell-based; conditions: Homo sapiens; RPMI-8226, leukemia; one dose 10 μM; read-out: Growth Inhibition Percentage (GI %)
A549/ATCC = assay: NCI-60 anticancer screening (SRB); type: cell-based; conditions: Homo sapiens; A549/ATCC, NSC lung cancer; one dose 10 μM; read-out: Growth Inhibition Percentage (GI %)
EKVX = assay: NCI-60 anticancer screening (SRB); type: cell-based; conditions: Homo sapiens, NSC lung cancer, one dose 10 μM, read-out: Growth Inhibition Percentage (GI %)
HOP-62 = assay: NCI-60 anticancer screening (SRB); type: cell-based; conditions: Homo sapiens; HOP-62, NSC lung cancer; one dose 10 μM; read-out: Growth Inhibition Percentage (GI %)
NCI-H322M = assay: NCI-60 anticancer screening (SRB); type: cell-based; conditions: Homo sapiens, NSC lung cancer, one dose 10 μM, read-out: Growth Inhibition Percentage (GI %)
NCI-H460 = assay: NCI-60 anticancer screening (SRB); type: cell-based; conditions: Homo sapiens; NCI-H460, NSC lung cancer; one dose 10 μM; read-out: Growth Inhibition Percentage (GI %)
NCI-H522 = assay: NCI-60 anticancer screening (SRB); type: cell-based; conditions: Homo sapiens; NCI-H522, NSC lung cancer; one dose 10 μM; read-out: Growth Inhibition Percentage (GI %)
HCC-2998 = assay: NCI-60 anticancer screening (SRB); type: cell-based; conditions: Homo sapiens; HCC-2998, colon cancer; one dose 10 μM; read-out: Growth Inhibition Percentage (GI %)
HCT-15 = assay: NCI-60 anticancer screening (SRB); type: cell-based; conditions: Homo sapiens; HCT-15, colon cancer; one dose 10 μM; read-out: Growth Inhibition Percentage (GI %)
HT29 = assay: NCI-60 anticancer screening (SRB); type: cell-based; conditions: Homo sapiens, HT-29; HT29, colon cancer; one dose 10 μM; read-out: Growth Inhibition Percentage (GI %)
KM 12 = assay: NCI-60 anticancer screening (SRB); type: cell-based; conditions: Homo sapiens, KM12; KM 12, colon cancer; one dose 10 μM; read-out: Growth Inhibition Percentage (GI %)
SF-268 = assay: NCI-60 anticancer screening (SRB); type: cell-based; conditions: Homo sapiens; SF-268, CNS cancer; one dose 10 μM; read-out: Growth Inhibition Percentage (GI %)
SF-295 = assay: NCI-60 anticancer screening (SRB); type: cell-based; conditions: Homo sapiens; SF-295, CNS cancer; one dose 10 μM; read-out: Growth Inhibition Percentage (GI %)
SF-539 = assay: NCI-60 anticancer screening (SRB); type: cell-based; conditions: Homo sapiens; SF-539, CNS cancer; one dose 10 μM; read-out: Growth Inhibition Percentage (GI %)
SNB-19 = assay: NCI-60 anticancer screening (SRB); type: cell-based; conditions: Homo sapiens; SNB-19, CNS cancer; one dose 10 μM; read-out: Growth Inhibition Percentage (GI %)
SNB-75 = assay: NCI-60 anticancer screening (SRB); type: cell-based; conditions: Homo sapiens; SNB-75, CNS cancer; one dose 10 μM; read-out: Growth Inhibition Percentage (GI %)
M14 = assay: NCI-60 anticancer screening (SRB); type: cell-based; conditions: Homo sapiens; M14, melanoma; one dose 10 μM; read-out: Growth Inhibition Percentage (GI %)
MDA-MB-435 = assay: NCI-60 anticancer screening (SRB); type: cell-based; conditions: Homo sapiens; MDA-MB-435, melanoma; one dose 10 μM; read-out: Growth Inhibition Percentage (GI %)
SK-MEL-28 = assay: NCI-60 anticancer screening (SRB); type: cell-based; conditions: Homo sapiens; SK-MEL-28, melanoma; one dose 10 μM; read-out: Growth Inhibition Percentage (GI %)
SK-MEL-5 = assay: NCI-60 anticancer screening (SRB); type: cell-based; conditions: Homo sapiens; SK-MEL-5, melanoma; one dose 10 μM; read-out: Growth Inhibition Percentage (GI %)
UACC-62 = assay: NCI-60 anticancer screening (SRB); type: cell-based; conditions: Homo sapiens; UACC-62, melanoma; one dose 10 μM; read-out: Growth Inhibition Percentage (GI %)
NCI/ADR-RES = assay: NCI-60 anticancer screening (SRB); type: cell-based; conditions: Homo sapiens, ovarian cancer, one dose 10 μM, read-out: Growth Inhibition Percentage (GI %)
786-0 = assay: NCI-60 anticancer screening (SRB); type: cell-based; conditions: Homo sapiens; 786-0, renal cancer; one dose 10 μM; read-out: Growth Inhibition Percentage (GI %)
CAKI-1 = assay: NCI-60 anticancer screening (SRB); type: cell-based; conditions: Homo sapiens; CAKI-1, renal cancer; one dose 10 μM; read-out: Growth Inhibition Percentage (GI %)
RXF 393 = assay: NCI-60 anticancer screening (SRB); type: cell-based; conditions: Homo sapiens; RXF 393, renal cancer; one dose 10 μM; read-out: Growth Inhibition Percentage (GI %)
SN 12C = assay: NCI-60 anticancer screening (SRB); type: cell-based; conditions: Homo sapiens, SN12C; SN 12C, renal cancer; one dose 10 μM; read-out: Growth Inhibition Percentage (GI %)
TK-10 = assay: NCI-60 anticancer screening (SRB); type: cell-based; conditions: Homo sapiens; TK-10, renal cancer; one dose 10 μM; read-out: Growth Inhibition Percentage (GI %)
DU-145 = assay: NCI-60 anticancer screening (SRB); type: cell-based; conditions: Homo sapiens; DU-145, prostate cancer; one dose 10 μM; read-out: Growth Inhibition Percentage (GI %)
MDA-MB-231 = assay: NCI-60 anticancer screening (SRB); type: cell-based; conditions: Homo sapiens; MDA-MB-231, breast cancer; one dose 10 μM; read-out: Growth Inhibition Percentage (GI %)
T-47D = assay: NCI-60 anticancer screening (SRB); type: cell-based; conditions: Homo sapiens, T47D, breast cancer, one dose 10 μM, read-out: Growth Inhibition Percentage (GI %)
NCI 60 cancer cell lines = assay: NCI-60 anticancer screening (SRB), whole panel; type: cell-based, human; conditions: mean across the NCI-60 panel; one dose 10 μM

Compound | inhibition at 10 µM (HL-60(TB)) [%] | inhibition at 10 µM (RPMI-8226) [%] | inhibition at 10 µM (A549/ATCC) [%] | inhibition at 10 µM (EKVX) [%] | inhibition at 10 µM (HOP-62) [%] | inhibition at 10 µM (NCI-H322M) [%] | inhibition at 10 µM (NCI-H460) [%] | inhibition at 10 µM (NCI-H522) [%] | inhibition at 10 µM (HCC-2998) [%] | inhibition at 10 µM (HCT-15) [%] | inhibition at 10 µM (HT29) [%] | inhibition at 10 µM (KM 12) [%] | inhibition at 10 µM (SF-268) [%] | inhibition at 10 µM (SF-295) [%] | inhibition at 10 µM (SF-539) [%] | inhibition at 10 µM (SNB-19) [%] | inhibition at 10 µM (SNB-75) [%] | inhibition at 10 µM (M14) [%] | inhibition at 10 µM (MDA-MB-435) [%] | inhibition at 10 µM (SK-MEL-28) [%] | also measured
CCOC(=O)C1=C(N)N(c2ccccc2)C2=C(C(=O)CC(C)(C)C2)C1c1ccc(N2CCOCC2)cc1 (racemic) [8l, (±)-Ethyl 2-amino-7,7-dimethyl-4-[4-(morpholin-4-yl)phenyl]-5-oxo-1-phenyl-1,4,5,6,7,8-hexahydroquinoline-3-carboxylate] | < 10 | < 10 | < 10 | < 10 | < 10 | < 10 | < 10 | 11 | < 10 | < 10 | < 10 | < 10 | < 10 | < 10 | < 10 | < 10 | < 10 | < 10 | < 10 | < 10 | inhibition at 10 µM (SK-MEL-5): < 10%; inhibition at 10 µM (UACC-62): 17%; inhibition at 10 µM (NCI/ADR-RES): < 10%; inhibition at 10 µM (786-0): 16%; inhibition at 10 µM (CAKI-1): 18%; inhibition at 10 µM (RXF 393): < 10%; inhibition at 10 µM (SN 12C): < 10%; inhibition at 10 µM (TK-10): < 10%; inhibition at 10 µM (DU-145): < 10%; inhibition at 10 µM (MDA-MB-231): < 10%; inhibition at 10 µM (T-47D): < 10%; GI % mean (NCI 60 cancer cell lines): - ((-) = GI % mean less than 10)
CCOC(=O)C1=C(N)N(c2ccccc2)C2=C(C(=O)CC(C)(C)C2)C1c1ccccc1Br (racemic) [6d, (±)-Ethyl 2-amino-4–(2-bromophenyl)-7,7-dimethyl-5-oxo-1-phenyl-1,4,5,6,7,8-hexahydroquinoline-3-carboxylate] | 34 | 35 | 13 | 11 | < 10 | < 10 | 20 | 23 | < 10 | 17 | 17 | < 10 | < 10 | < 10 | < 10 | < 10 | 33 | 13 | < 10 | < 10 | inhibition at 10 µM (SK-MEL-5): < 10%; inhibition at 10 µM (UACC-62): 36%; inhibition at 10 µM (NCI/ADR-RES): < 10%; inhibition at 10 µM (786-0): 13%; inhibition at 10 µM (CAKI-1): 36%; inhibition at 10 µM (RXF 393): < 10%; inhibition at 10 µM (SN 12C): < 10%; inhibition at 10 µM (TK-10): < 10%; inhibition at 10 µM (DU-145): < 10%; inhibition at 10 µM (MDA-MB-231): < 10%; inhibition at 10 µM (T-47D): 30%; GI % mean (NCI 60 cancer cell lines): 12%
CCOC(=O)C1=C(N)N(c2ccc(C)cc2)C2=C(C(=O)CC(C)(C)C2)C1c1ccc(OC)cc1 (racemic) [8g, (±)-Ethyl 2-amino-4–(4-methoxyphenyl)-7,7-dimethyl-1–(4-methylphenyl)-5-oxo-1,4,5,6,7,8-hexahydroquinoline-3-carboxylate] | < 10 | < 10 | < 10 | < 10 | < 10 | < 10 | < 10 | < 10 | < 10 | < 10 | < 10 | < 10 | < 10 | < 10 | < 10 | < 10 | 13 | < 10 | < 10 | < 10 | inhibition at 10 µM (SK-MEL-5): < 10%; inhibition at 10 µM (UACC-62): < 10%; inhibition at 10 µM (NCI/ADR-RES): < 10%; inhibition at 10 µM (786-0): < 10%; inhibition at 10 µM (CAKI-1): < 10%; inhibition at 10 µM (RXF 393): < 10%; inhibition at 10 µM (SN 12C): < 10%; inhibition at 10 µM (TK-10): < 10%; inhibition at 10 µM (DU-145): < 10%; inhibition at 10 µM (MDA-MB-231): < 10%; inhibition at 10 µM (T-47D): < 10%; GI % mean (NCI 60 cancer cell lines): - ((-) = GI % mean less than 10)
CCOC(=O)C1=C(N)N(c2ccc(C)cc2)C2=C(C(=O)CC(C)(C)C2)C1c1ccccc1Br (racemic) [6e, (±)-Ethyl 2-amino-4–(2-bromophenyl)-7,7-dimethyl-1–(4-methylphenyl)-5-oxo-1,4,5,6,7,8-hexahydroquinoline-3-carboxylate] | 111 | 64 | 19 | < 10 | < 10 | < 10 | 46 | 32 | 11 | 42 | 37 | 16 | < 10 | < 10 | < 10 | 13 | 13 | 17 | 17 | < 10 | inhibition at 10 µM (SK-MEL-5): 23%; inhibition at 10 µM (UACC-62): 28%; inhibition at 10 µM (NCI/ADR-RES): < 10%; inhibition at 10 µM (786-0): 17%; inhibition at 10 µM (CAKI-1): 30%; inhibition at 10 µM (RXF 393): 14%; inhibition at 10 µM (SN 12C): 15%; inhibition at 10 µM (TK-10): < 10%; inhibition at 10 µM (DU-145): < 10%; inhibition at 10 µM (MDA-MB-231): < 10%; inhibition at 10 µM (T-47D): 30%; GI % mean (NCI 60 cancer cell lines): 22%
